Assay results reported in ChEMBL document CHEMBL1201862, “PubChem BioAssay data set” (2004).
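The compound was tested at five concentrations on cells cultured in 96-well plates, with a 48-hour exposure period. GI50: concentration for 50% inhibition of growth.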 Active and inactive are the calls of the source. Rule as the data show it: active = GI50 up to about 1.1 µM and inactive = higher.

How the values were obtained:
Experiment in all cases: growth of human tumour cells (NCI), 48 h
MDA-MB-231 = system: MDA-MB-231
HT-29 = system: HT-29
HOP-62 = system: HOP-62
SNB-19 = system: SNB-19
MCF7 = system: MCF7
CCRF-CEM = system: CCRF-CEM
U-251 = system: U-251
K562 = system: K562
SN12C = system: SN12C
A549 = system: A549
HCT-15 = system: HCT-15
ACHN = system: ACHN
RXF 393 = system: RXF 393
NCI/ADR-RES = system: NCI/ADR-RES
SF-268 = system: SF-268
MDA-MB-435 = system: MDA-MB-435
RPMI-8226 = system: RPMI-8226
SF-539 = system: SF-539
SR = system: SR
Hs-578T = system: Hs-578T

| SMILES | GI50 (MDA-MB-231) | GI50 (HT-29) | GI50 (HOP-62) | GI50 (SNB-19) | GI50 (MCF7) | GI50 (CCRF-CEM) | GI50 (U-251) | GI50 (K562) | GI50 (SN12C) | GI50 (A549) | GI50 (HCT-15) [µM] | GI50 (ACHN) | GI50 (RXF 393) | GI50 (NCI/ADR-RES) | GI50 (SF-268) | GI50 (MDA-MB-435) | GI50 (RPMI-8226) | GI50 (SF-539) | GI50 (SR) | GI50 (Hs-578T) |
| --- | --- | --- | --- | --- | --- | --- | --- | --- | --- | --- | --- | --- | --- | --- | --- | --- | --- | --- | --- | --- |
| O=C1C2CCCCC2C(=O)N1n1c(Cc2ccccc2)n[nH]c1=O (stereo not given) | > 100 µM (inactive) | > 100 µM (inactive) | > 100 µM (inactive) | > 100 µM (inactive) | > 100 µM (inactive) | > 100 µM (inactive) | > 100 µM (inactive) | > 100 µM (inactive) | > 100 µM (inactive) | > 100 µM (inactive) | > 100 | > 100 µM (inactive) | > 100 µM (inactive) | > 100 µM (inactive) | > 100 µM (inactive) | > 100 µM (inactive) | > 100 µM (inactive) | > 100 µM (inactive) | > 100 µM (inactive) | > 100 µM (inactive) |
| COC(=O)/C(=C/c1ccc(OC)cc1)c1cc(OC)c(OC)c(OC)c1 | 3.38 µM (inactive) | 0.524 µM (active) | 1.53 µM (inactive) | 3.62 µM (inactive) | 0.604 µM (active) | 1.39 µM (inactive) | 2 µM (inactive) | 0.366 µM (active) | 5.08 µM (inactive) | 2.99 µM (inactive) | 0.646 | 9.93 µM (inactive) | 1.24 µM (inactive) | 0.514 µM (active) | 6.01 µM (inactive) | 0.112 µM (active) | 2.52 µM (inactive) | 1.55 µM (inactive) | 0.379 µM (active) | 0.957 µM (active) |
| COC(=O)[C@@H]1C[C@@]2(C3C=CN(C(=O)C(F)(F)F)C=C3)c3ccccc3N(C(=O)C(F)(F)F)[C@H]2N1C(=O)OC | > 100 µM (inactive) | > 10 µM (inactive) | 49.5 µM (inactive) | 71.6 µM (inactive) | 51.8 µM (inactive) | 31.7 µM (inactive) | 43 µM (inactive) | 47.8 µM (inactive) | 56.9 µM (inactive) | > 100 µM (inactive) | 88.1 | > 100 µM (inactive) | 24.5 µM (inactive) | > 100 µM (inactive) | 43 µM (inactive) | 44.8 µM (inactive) | 42.1 µM (inactive) | > 100 µM (inactive) | 53.8 µM (inactive) | 49.7 µM (inactive) |
| c1ccc2c(c1)ccc1cc3cc(NCCCCNc4ccc5nc6c(ccc7ccccc76)cc5c4)ccc3nc12 | 0.154 µM (active) | 2.61 µM (inactive) | 0.212 µM (active) | 0.352 µM (active) | 0.262 µM (active) | 0.427 µM (active) | 0.199 µM (active) | 1.63 µM (inactive) | 1.41 µM (inactive) | 1.51 µM (inactive) | 0.701 | 1.39 µM (inactive) | 1.58 µM (inactive) | 2.11 µM (inactive) | 1.82 µM (inactive) | 1.83 µM (inactive) | 0.323 µM (active) | 1.35 µM (inactive) | 0.0179 µM (active) | 1.96 µM (inactive) |
| C[N+]1([O-])C2CCC1CC(OC(=O)C(CO)c1ccccc1)C2 (stereo not given) | > 100 µM (inactive) | > 100 µM (inactive) | > 100 µM (inactive) | > 100 µM (inactive) | > 100 µM (inactive) | > 100 µM (inactive) | > 100 µM (inactive) | > 100 µM (inactive) | > 81.7 µM (inactive) | > 100 µM (inactive) | > 55.8 | > 100 µM (inactive) | > 100 µM (inactive) | > 33.4 µM (inactive) | > 100 µM (inactive) | > 100 µM (inactive) | > 100 µM (inactive) | > 100 µM (inactive) | > 36.6 µM (inactive) | > 100 µM (inactive) |
| O=C1OCC(c2ccc(Cl)cc2)=C1Cl | 33.3 µM (inactive) | 44.7 µM (inactive) | 22.9 µM (inactive) | > 100 µM (inactive) | 17.5 µM (inactive) | 29.2 µM (inactive) | 35.8 µM (inactive) | 28.2 µM (inactive) | 26.7 µM (inactive) | 35 µM (inactive) | 29.9 | 42.1 µM (inactive) | 25.1 µM (inactive) | 26.9 µM (inactive) | 21.1 µM (inactive) | 33.2 µM (inactive) | 23.8 µM (inactive) | 38 µM (inactive) | 16.7 µM (inactive) | 45.8 µM (inactive) |
| Cc1cc2c(cc1C)[n+]([O-])c(C(=O)/C=C/c1ccccc1[N+](=O)[O-])c(C)[n+]2[O-] | > 65.5 µM (inactive) | > 92.3 µM (inactive) | 34 µM (inactive) | 30.3 µM (inactive) | > 46.5 µM (inactive) | > 100 µM (inactive) | 32.1 µM (inactive) | > 100 µM (inactive) | 69 µM (inactive) | > 80.9 µM (inactive) | 73.8 | 46.3 µM (inactive) | 37.4 µM (inactive) | > 100 µM (inactive) | 34.2 µM (inactive) | > 100 µM (inactive) | > 73.3 µM (inactive) | 31.2 µM (inactive) | 55.6 µM (inactive) | 39.3 µM (inactive) |
| CC1=NOC2(C1)C(=O)Nc1ccccc12 (stereo not given) | > 100 µM (inactive) | > 100 µM (inactive) | > 100 µM (inactive) | 40.6 µM (inactive) | 9.79 µM (inactive) | > 100 µM (inactive) | > 100 µM (inactive) | > 100 µM (inactive) | > 100 µM (inactive) | > 100 µM (inactive) | > 100 | > 100 µM (inactive) | > 100 µM (inactive) | 44.5 µM (inactive) | > 100 µM (inactive) | > 100 µM (inactive) | > 100 µM (inactive) | > 100 µM (inactive) | > 100 µM (inactive) | > 100 µM (inactive) |
| Cc1coc2c1C(=O)C(=O)c1c-2ccc2c1CCCC2(C)C [TANSHINONE IIA] | 21.8 µM (inactive) | 10.5 µM (inactive) | 1.95 µM (inactive) | 2.52 µM (inactive) | 2.18 µM (inactive) | 7.52 µM (inactive) | 2.51 µM (inactive) | 0.875 µM (active) | 3.7 µM (inactive) | 1.48 µM (inactive) | 0.673 | 7.33 µM (inactive) | 5.12 µM (inactive) | 4.58 µM (inactive) | 3.53 µM (inactive) | 1.48 µM (inactive) | 1.94 µM (inactive) | 2.42 µM (inactive) | 0.757 µM (active) | 3.73 µM (inactive) |
| COc1ccc(Cl)cc1NC(=O)c1cccc([N+](=O)[O-])c1O | 24.8 µM (inactive) | 19.8 µM (inactive) | 13.4 µM (inactive) | 8.97 µM (inactive) | 20.9 µM (inactive) | 16 µM (inactive) | 11.9 µM (inactive) | 32.1 µM (inactive) | 12.6 µM (inactive) | 11.2 µM (inactive) | 21.8 | 12.4 µM (inactive) | 12 µM (inactive) | 10 µM (inactive) | 17.9 µM (inactive) | 14.4 µM (inactive) | 5.07 µM (inactive) | 16.1 µM (inactive) | 17.5 µM (inactive) | 17.5 µM (inactive) |
| N=C(N)SC(c1ccccc1)c1ccccc1 | 15.2 µM (inactive) | 13.3 µM (inactive) | 19.6 µM (inactive) | 28.1 µM (inactive) | 15.4 µM (inactive) | 10.5 µM (inactive) | 15.3 µM (inactive) | 22.4 µM (inactive) | 16 µM (inactive) | 25.2 µM (inactive) | 16.4 | 14.9 µM (inactive) | 6.52 µM (inactive) | 17.2 µM (inactive) | 22.6 µM (inactive) | 12.6 µM (inactive) | 10.2 µM (inactive) | 20.8 µM (inactive) | 24 µM (inactive) | 27.1 µM (inactive) |
| COc1nc2c(c(=O)n1C)NC(C(O)C(O)CO)C=N2 (stereo not given) | > 10 µM (inactive) | > 10 µM (inactive) | > 10 µM (inactive) | > 10 µM (inactive) | > 10 µM (inactive) | > 10 µM (inactive) | > 10 µM (inactive) | > 10 µM (inactive) | > 10 µM (inactive) | > 10 µM (inactive) | > 10 | > 10 µM (inactive) | > 10 µM (inactive) | > 10 µM (inactive) | > 10 µM (inactive) | > 10 µM (inactive) | > 10 µM (inactive) | > 10 µM (inactive) | > 10 µM (inactive) | > 10 µM (inactive) |
